Data as given in ChEMBL document CHEMBL1201862, “PubChem BioAssay data set” (2004).
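Method: 48-hour compound exposure of cells in 96-well plates, five concentrations, linear interpolation of endpoints. GI50: concentration for 50% inhibition of growth.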 Calls of active or inactive are those of the source. No stated cut-off is given here; in the data, active = GI50 up to about 1.1 µM and inactive = higher.

Assays:
Assay in all cases: DTP human tumour cell line panel, 48 h
HCT-15 = test system: HCT-15
NCI-H460 = test system: NCI-H460
MDA-N = test system: MDA-N
MOLT-4 = test system: MOLT-4
RPMI-8226 = test system: RPMI-8226
NCI/ADR-RES = test system: NCI/ADR-RES
SF-295 = test system: SF-295
HCT-116 = test system: HCT-116
SN12C = test system: SN12C
OVCAR-3 = test system: OVCAR-3
DU-145 = test system: DU-145
CCRF-CEM = test system: CCRF-CEM
ACHN = test system: ACHN
OVCAR-8 = test system: OVCAR-8
NCI-H23 = test system: NCI-H23
NCI-H522 = test system: NCI-H522
Malme-3M = test system: Malme-3M
SK-MEL-2 = test system: SK-MEL-2
HOP-92 = test system: HOP-92
UACC-257 = test system: UACC-257

| SMILES | GI50 (HCT-15) [µM] | GI50 (NCI-H460) | GI50 (MDA-N) | GI50 (MOLT-4) | GI50 (RPMI-8226) | GI50 (NCI/ADR-RES) | GI50 (SF-295) | GI50 (HCT-116) | GI50 (SN12C) | GI50 (OVCAR-3) | GI50 (DU-145) | GI50 (CCRF-CEM) | GI50 (ACHN) | GI50 (OVCAR-8) | GI50 (NCI-H23) | GI50 (NCI-H522) | GI50 (Malme-3M) | GI50 (SK-MEL-2) | GI50 (HOP-92) | GI50 (UACC-257) |
| --- | --- | --- | --- | --- | --- | --- | --- | --- | --- | --- | --- | --- | --- | --- | --- | --- | --- | --- | --- | --- |
| N#CCCC1C(C#N)C2(Cl)CC1(Cl)C(Cl)=C2Cl (stereo unspecified) | > 10 | > 10 µM (inactive) | > 10 µM (inactive) | > 10 µM (inactive) | > 10 µM (inactive) | > 10 µM (inactive) | > 10 µM (inactive) | > 10 µM (inactive) | > 10 µM (inactive) | > 10 µM (inactive) | > 10 µM (inactive) | > 10 µM (inactive) | > 10 µM (inactive) | > 10 µM (inactive) | > 10 µM (inactive) | 3.59 µM (inactive) | > 10 µM (inactive) | > 10 µM (inactive) | – | – |
| COC(C/C=C\C=C\CC/C=C/CC(C)/C=C/C(=C\C(=O)O)CC(=O)O)/C(C)=C\C=C(/C)C(=O)O (stereo unspecified) | > 100 | > 100 µM (inactive) | > 100 µM (inactive) | > 100 µM (inactive) | > 100 µM (inactive) | – | > 100 µM (inactive) | > 100 µM (inactive) | > 100 µM (inactive) | > 100 µM (inactive) | > 100 µM (inactive) | > 100 µM (inactive) | – | – | > 100 µM (inactive) | > 100 µM (inactive) | > 100 µM (inactive) | > 100 µM (inactive) | > 100 µM (inactive) | > 100 µM (inactive) |
| Cc1ccc(/N=N/NCCCCN/N=N/c2ccc(C)cc2)cc1 | 4.93 | 12.5 µM (inactive) | 16.5 µM (inactive) | 14.2 µM (inactive) | – | > 100 µM (inactive) | 8.22 µM (inactive) | 65.8 µM (inactive) | > 100 µM (inactive) | > 100 µM (inactive) | 32 µM (inactive) | 1 µM (active) | – | 27.4 µM (inactive) | 9.25 µM (inactive) | – | > 100 µM (inactive) | > 100 µM (inactive) | 25.3 µM (inactive) | > 100 µM (inactive) |
| Cc1cn(C2CC(O)C(Cn3nncc3Cn3ncc(=O)[nH]c3=O)O2)c(=O)[nH]c1=O (stereo unspecified) | > 100 | – | > 100 µM (inactive) | > 100 µM (inactive) | > 100 µM (inactive) | > 100 µM (inactive) | > 100 µM (inactive) | > 100 µM (inactive) | > 100 µM (inactive) | > 100 µM (inactive) | > 100 µM (inactive) | > 100 µM (inactive) | > 100 µM (inactive) | > 100 µM (inactive) | > 100 µM (inactive) | – | > 100 µM (inactive) | > 100 µM (inactive) | > 100 µM (inactive) | > 100 µM (inactive) |
| CC(=O)Nc1ccc2nc(N)n[n+]([O-])c2c1 | > 100 | > 100 µM (inactive) | > 100 µM (inactive) | > 100 µM (inactive) | > 100 µM (inactive) | > 100 µM (inactive) | > 100 µM (inactive) | > 100 µM (inactive) | > 100 µM (inactive) | > 100 µM (inactive) | > 100 µM (inactive) | > 100 µM (inactive) | > 100 µM (inactive) | > 100 µM (inactive) | > 100 µM (inactive) | > 100 µM (inactive) | – | > 100 µM (inactive) | – | > 100 µM (inactive) |
| CCOC(=O)/C=C1\CCCC12OCCO2 | > 100 | > 100 µM (inactive) | – | 30.5 µM (inactive) | 49.7 µM (inactive) | – | – | 54.1 µM (inactive) | > 100 µM (inactive) | 28 µM (inactive) | – | > 100 µM (inactive) | > 100 µM (inactive) | 89.5 µM (inactive) | – | 2.87 µM (inactive) | > 100 µM (inactive) | > 100 µM (inactive) | – | > 100 µM (inactive) |
| COc1cc(/C=C2/C(=O)N(C(=O)OCC(C)C)C(Cc3cc(OC)c(OC)c(C)c3OC)C(=O)N2Cc2ccccc2)c(OC)c(C)c1OC (stereo unspecified) | – | 30.5 µM (inactive) | – | 7.35 µM (inactive) | 21.8 µM (inactive) | – | 62.7 µM (inactive) | 20.2 µM (inactive) | > 100 µM (inactive) | 79.4 µM (inactive) | – | 21.3 µM (inactive) | > 100 µM (inactive) | > 100 µM (inactive) | > 100 µM (inactive) | 5.26 µM (inactive) | > 100 µM (inactive) | 94.6 µM (inactive) | 4.74 µM (inactive) | 15.9 µM (inactive) |
| CCC1=NC(C(F)(F)F)(C(F)(F)F)N=C(N2CCOCC2)O1 | > 100 | > 100 µM (inactive) | > 100 µM (inactive) | > 100 µM (inactive) | > 100 µM (inactive) | > 100 µM (inactive) | > 100 µM (inactive) | > 100 µM (inactive) | > 100 µM (inactive) | > 100 µM (inactive) | > 100 µM (inactive) | > 100 µM (inactive) | > 100 µM (inactive) | > 100 µM (inactive) | > 100 µM (inactive) | > 100 µM (inactive) | – | > 100 µM (inactive) | > 100 µM (inactive) | > 100 µM (inactive) |
| CC1CC[C@@]2(OC1)OC1C[C@H]3[C@@H]4CC=C5CC(OC6OC(CO)C(OC7OC(CO)C(O)C(OC8OCC(O)C(O)C8O)C7OC7OC(CO)C(O)C(O)C7O)C(O)C6O)CCC5(C)[C@H]4CCC3(C)C1[C@@H]2C (stereo partly specified) | 14.9 | 5.52 µM (inactive) | – | 9.18 µM (inactive) | 6.81 µM (inactive) | 5.97 µM (inactive) | 7.11 µM (inactive) | 4.44 µM (inactive) | 4.58 µM (inactive) | 4.93 µM (inactive) | 4.86 µM (inactive) | 5.16 µM (inactive) | 4.97 µM (inactive) | 4.61 µM (inactive) | 5.64 µM (inactive) | 4.72 µM (inactive) | > 25 µM (inactive) | 11.7 µM (inactive) | > 25 µM (inactive) | 6.47 µM (inactive) |
| COC(c1ccc(C(C)(C)C)cc1)(c1ccc(C(C)(C)C)cc1)c1cc(C(O)(c2cc(C(OC)(c3ccc(C(C)(C)C)cc3)c3ccc(C(C)(C)C)cc3)c(C)cc2C)c2cc(C(OC)(c3ccc(C(C)(C)C)cc3)c3ccc(C(C)(C)C)cc3)c(C)cc2C)c(C)cc1C | > 100 | > 100 µM (inactive) | > 100 µM (inactive) | > 100 µM (inactive) | – | > 100 µM (inactive) | > 100 µM (inactive) | > 100 µM (inactive) | – | > 100 µM (inactive) | > 100 µM (inactive) | > 100 µM (inactive) | – | > 100 µM (inactive) | > 100 µM (inactive) | – | > 100 µM (inactive) | > 100 µM (inactive) | > 100 µM (inactive) | > 100 µM (inactive) |
| CCOC(=O)c1csc(NC(=O)CN(C)C)n1 | > 100 | > 100 µM (inactive) | > 100 µM (inactive) | > 100 µM (inactive) | > 100 µM (inactive) | > 100 µM (inactive) | > 100 µM (inactive) | – | – | > 100 µM (inactive) | > 100 µM (inactive) | > 100 µM (inactive) | > 100 µM (inactive) | > 100 µM (inactive) | > 100 µM (inactive) | – | – | > 100 µM (inactive) | > 100 µM (inactive) | > 100 µM (inactive) |
| O=c1n(CC2CO2)c2ccccc2n1CC1CS1 (stereo unspecified) | > 100 | > 100 µM (inactive) | – | 73.3 µM (inactive) | 36.3 µM (inactive) | – | > 100 µM (inactive) | 67.3 µM (inactive) | > 100 µM (inactive) | 78.7 µM (inactive) | – | 63.2 µM (inactive) | > 100 µM (inactive) | > 100 µM (inactive) | – | > 100 µM (inactive) | > 100 µM (inactive) | > 100 µM (inactive) | > 100 µM (inactive) | – |
| CC(=O)OCCOCNC(=S)N/N=C/c1cc(Br)cs1 | > 100 | > 100 µM (inactive) | – | > 100 µM (inactive) | > 100 µM (inactive) | – | > 100 µM (inactive) | > 100 µM (inactive) | > 100 µM (inactive) | > 100 µM (inactive) | – | > 100 µM (inactive) | > 100 µM (inactive) | > 100 µM (inactive) | > 100 µM (inactive) | > 100 µM (inactive) | > 100 µM (inactive) | > 100 µM (inactive) | – | > 100 µM (inactive) |
| NC1CCC2(O)c3ccccc3C2C1 (stereo unspecified) | > 100 | > 100 µM (inactive) | – | > 100 µM (inactive) | > 100 µM (inactive) | – | > 100 µM (inactive) | > 100 µM (inactive) | > 100 µM (inactive) | – | – | > 100 µM (inactive) | > 100 µM (inactive) | > 100 µM (inactive) | > 100 µM (inactive) | > 100 µM (inactive) | > 100 µM (inactive) | > 100 µM (inactive) | – | > 100 µM (inactive) |
| Cc1ccc(/N=N/c2c(C)nn(-c3ccccc3)c2-c2ccccc2)c(Br)c1 | 28.2 | 31.8 µM (inactive) | – | 8.15 µM (inactive) | – | – | 86.5 µM (inactive) | 12.6 µM (inactive) | > 100 µM (inactive) | > 100 µM (inactive) | – | 21 µM (inactive) | 53.8 µM (inactive) | > 100 µM (inactive) | – | 97.1 µM (inactive) | > 100 µM (inactive) | > 100 µM (inactive) | 40 µM (inactive) | 79.8 µM (inactive) |
| CCOc1ccc(C(C)c2cc3c(cc2OC)OCO3)cc1 (stereo unspecified) | 0.299 | 0.34 µM (active) | – | 0.396 µM (active) | 0.427 µM (active) | – | 0.0828 µM (active) | 0.371 µM (active) | 0.484 µM (active) | 0.221 µM (active) | – | – | 0.897 µM (active) | 0.424 µM (active) | 0.267 µM (active) | 0.0316 µM (active) | 0.457 µM (active) | – | 0.855 µM (active) | 0.767 µM (active) |
| C=C(C)C1CC2=C(O1)C(=O)c1ccccc1C2=O (stereo not drawn) [DEHYDROISO-ALPHA-LAPACHONE] | 17.9 | 17.7 µM (inactive) | – | 10.6 µM (inactive) | 15.1 µM (inactive) | – | – | – | 19.1 µM (inactive) | 18.9 µM (inactive) | – | 16.3 µM (inactive) | – | 17.3 µM (inactive) | 18.9 µM (inactive) | 20.7 µM (inactive) | – | – | 16.3 µM (inactive) | 13.3 µM (inactive) |
